Here are results for seven compounds from patent US20090325960A1, “METHOD FOR TREATING INFLAMMATORY DISEASES USING RHO KINASE INHIBITOR COMPOUNDS” (priority 2008, published 2009).

The subject of series [1] is ova-sensitized, ova-challenged BALB/c mice. Description: In vivo anti-inflammatory activity, mouse ovalbumin sensitization model (BALF cells and cytokines).
Description: Upon arrival, the animals were randomized into groups of five males per cage and assigned to a dosing group. Animals were quarantined for 7 days under test conditions. […] Animals were sensitized on day 0 and 14 of study by an intraperitoneal injection with 20 μg of ovalbumin (ova) and 2.0 mg aluminum hydroxide (alum) which initiates the development of a specific T-helper (Th) cells type 2 resulting in asthmatic animals (denoted as Ova in the fugures). One group of animals received an injection of saline to use as control animals (denoted as normal in the figures). […] Aerosol challenge consists of using an Aerogen Aeroneb nebulizer and controller with a particle size of 4-6 μm mass median aerodynamic diameter (MMAD) with a distribution of 400 μl per minute. This aerosol challenge is necessary to target the Th2-driven allergic inflammation in the lower airways.
The anti-inflammatory dosing paradigm (FIG. 5) was utilized to evaluate the anti-inflammatory effects of experimental compounds. […] On day 32 of the experiment, after measurement of airway hyperreactivity, BALF was collected and all animals were anesthetized, bled and euthanized.
Bronchoalveolar lavage fluid (BALF) was collected by infusing 3.0 ml of saline with 10% fetal calf serum into the lungs via the trachea and then withdrawing the fluid. The total amount of cells/ml of BALF fluid was determined via manual cell count on hemocytometer. The BALF was centrifuged, supernatant removed and analyzed for cytokine concentrations as described below, and cell pellet reconstituted in 500 μL of fluid. Cytospin slides were prepared from the cell pellet using 100 μL of fluid and spinning samples for 5 minutes at 5000 rpms in a cytospin centrifuge, Following Hema3 stain, relative percentages of individual leukocytes were determined on a 200 cell count for each sample. The final concentration of individual leukocyte cell types per ml of BALF was determined by multiplication of the relative percentage of individual leukocytes with the total amount of cells/ml of BALF fluid.
The concentrations of cytokines in the BALF samples were determined using commercially available Bio-plex kits (Bio-Rad) for the detection of mouse IL-5, IL-13, and Eotaxin. The analysis of cytokine levels was measured using the Bio-Plex 200 (Bio-Rad) system according to the manufacturer's instructions.
For series [2] the test system is unchanged. Description: Prevention of airway hyperreactivity (Penh, methacholine) in mouse ovalbumin sensitization model. It is filed as in vivo. The settings on record: for airway hyperreactivity: intratracheal once a day. The protocol: The anti-inflammatory dosing paradigm consists of dosing the animals once a day starting on day 27 and finishing on either day 30 or 31 (1 hr prior to the aerosolized ovalbumin challenges on days 28 to 30) but not on day 32 when hyperreactivity evaluation occurs. […] Exposure to the methacholine doses consisted of a 3 minute period during which a nebulizer was aerosolizing the methacholine and an additional 3 minute period following the cessation of nebulization. […] Enhanced pause (Penh), a unitless index of airway hyperreactivity, is derived from the expiratory side of the respiratory waveform measured via the plethysmograph and is used as an indirect measure of airway resistance and hyperreactivity. […] Following the methacholine dose response, BALF was collected and all animals were anesthetized, bled and euthanized. […] The Penh value at each of the dose levels of methacholine represents the 6-minute average response. Change from baseline (CFB) in Penh was calculated at each methacholine dose and the area under the curve (AUC) for these CFB values was calculated using the trapezoidal rule. This same approach was applied for each mouse across multiple experiments. […] Data from equal experimental conditions across experiments performed on different days were pooled for statistical analysis and data reporting. […] A random intercept for each experiment was assumed to account for possible similarities of the results obtained from a given experiment (i.e., as a “blocking effect”). […] For FIG. 11, linear AUC values from compound treated mice were reported as a percent of linear AUC values from vehicle-treated ovalbumin-sensitized/ovalbumin-challenged (asthmatic) mice.

In series [3] the test system is cytokine secretion from LPS-stimulated human monocytes. Description: Human monocyte cytokine secretion assay (LPS-stimulated). It is filed as cell-based.
Description: Peripheral blood from healthy human volunteers was collected and the monocytes isolated via Ficoll-paque density centrifugation. […] The cells were allowed to pre-incubate with test compound at the indicated concentration for 30 minutes (37° C., 5% CO2, humidified air); after which the supernatant was removed and media containing compound and 1 ng/mL LPS was added. Cells were allowed to incubate with compounds and LPS for 4 hours at 37° C. after which the supernatant was removed and stored at −80° C. Cytokine concentrations in the supernatant were determined using commercially available Bio-Rad Bio-Plex™ kits according the manufacturer's instructions.
Series [4] relates to LPS-challenged BALB/c mice. Description: LPS-induced neutrophilia and cytokine production assay. It is filed as in vivo, mouse. The settings on record: for IL-1β levels in BALF: intratracheal administration, LPS-challenged animals.
Description: Male BALB/c mice, approximately 19 to 21 grams, were ordered from Charles River Laboratories (Raleigh, N.C.). All animals were challenged with aerosolized LPS (10 μg/ml) for 25 minutes on study day 0. LPS aerosol was generated using an Aerogen Aeroneb nebulizer and controller providing a flow of 400 μl/min and a particle size of 2-4 μm MMAD. Rolipram was administered i.p at 20 mg/kg. […] Four hours following LPS challenge, BALF was collected using a total of 3 ml of 0.9% sodium chloride containing 10% fetal calf serum. Total cell counts were determined using the Coulter Counter. For differential evaluations, BALF was centrifuged and cytospin slides prepared and stained with Hema3 stain. Manual leukocyte counts were then completed on 200 cells. The final concentration of individual leukocyte cell types per ml of BALF was determined by multiplication of the relative percentage of individual leukocytes with the total amount of cells/ml of BALF fluid. The concentration of IL-1β in the BALF samples was determined using commercially available Bio-plex kits (Bio-Rad). The analysis of cytokine levels was measured using the Bio-Plex 200 (Bio-Rad) system according to the manufacturer's instructions.
Series [5] in a line: Rat oral pharmacokinetics (plasma). Format: in vivo. The settings on record: rat oral PK, mean of n = 3 rats.
Description: Plasma (EDTA K2 anticoagulant) was collected from male, cannulated, CD Sprague Dawley rats to determine the pharmacokinetics of formulations containing compound inhibitors of Rho kinase. Each animal was dosed orally with a 4 ml/kg solution or suspension of each test compound in 10 mM acetate buffered saline, pH 4.5 at a final concentration range of 20-30 mol/kg. Blood was collected at 0.25, 0.5, 1, 2, 4, 6, 8, and 24 hours. Plasma samples were assayed for the concentration of the test compound using an on-line, solid phase extraction LC/MS/MS analysis system.
Pharmacokinetic analyses were performed using WinNonlin software version 5.2 (Pharsight Corporation, Mountain View, Calif.).
As determined from the plasma concentration versus time curves, the time to peak and peak exposure are represented by the values Tmax and Cmax, respectively. The AUC values (nM*hr) shown were calculated as the areas under the plasma concentration versus time curves from time zero through the time of the last observable value and represent the total exposure of the compound over the course of the study. Half-life values or the amount of time required for the plasma levels of the compound to decline to half the initial value are represented as t1/2.
Series [6] is described as follows: Compound concentrations in lungs of ova-sensitized mice post IP, PO and IT administration. Format: in vivo. The following applies: male, Balb/c, mouse, lung, other: intratracheal (IT), BD model, IT 5 μmol/kg, read-out: Lung, nM (plasma corrected lung concentration). The protocol:
Additionally, compound concentrations were determined in the plasma and lungs of male, ovalbumin-sensitized, Balb/c mice from a murine model of asthma. Test compounds were formulated in water or 1% polysorbate 80 and dosed at 15 μmol/kg for intraperitoneal (IP) or oral (PO) administration or formulated for intratracheal (IT) administration and dosed at 5 μmol/kg, which directly targets the lungs. Following completion of the in vivo study, mice were euthanized and blood and plasma collected approximately 2.5-3 hours post administration of test compound for bronchodialator (BD) studies and 24 hours post administration for anti-inflamatory (AI) studies. Lungs were homogenized in Matrix A lysing tubes using a FastPrep 24 tissue and cell homogenizer (MP Biomedicals, Solon, Ohio). Both plasma samples and lung extracts were assayed for compound concentrations using an on-line, solid phase extraction LC/MS/MS system. The actual lung tissue concentrations of each compound in mouse were extrapolated from the lung and plasma concentrations, data are shown in Table 11. The results of a set of experiments using unsensitized mice and collecting only plasma 15 minutes post administration of test compounds are shown in Table 12.

The target of another series is T1, ERK1 (Homo sapiens, UniProt P27361).
T1 construct: purchased Upstate, Millipore Bioscience Division (KinaseProfiler service)
T1 sequence (P27361 whole entry): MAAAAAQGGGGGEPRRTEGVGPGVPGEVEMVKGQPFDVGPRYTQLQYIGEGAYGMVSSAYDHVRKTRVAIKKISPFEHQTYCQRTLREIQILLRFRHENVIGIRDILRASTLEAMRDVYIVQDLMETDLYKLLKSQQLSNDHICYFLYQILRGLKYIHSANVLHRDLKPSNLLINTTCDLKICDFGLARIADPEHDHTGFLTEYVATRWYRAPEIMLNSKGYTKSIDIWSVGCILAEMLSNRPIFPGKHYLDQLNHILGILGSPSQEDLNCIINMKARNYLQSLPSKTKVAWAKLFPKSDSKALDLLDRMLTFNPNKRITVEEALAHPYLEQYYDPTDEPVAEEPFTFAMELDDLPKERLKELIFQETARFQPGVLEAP
Description: Kinase panel screen (KinaseProfiler), ERK1. It is filed as biochemical. The settings on record: 1 μM test compound, 10 μM ATP. Here is the method: (§1) Compounds of Formulae I and II were examined for activity against a selected panel of kinases using the KinaseProfiler™ enzyme profiling services (Upstate, Millipore Bioscience Division). Percent kinase activity at 10 μM and 1 μM test compound and 10 μM ATP was determined against 40 wild-type recombinant human kinases according to Upstate's standard protocol: ASK1, BTK, CSK, c-RAF, GCK, GSK3β, IKKα, IKKβ, IRAK1, IRAK4, JNK1α1, JNK2α2, JNK3, ERK1, ERK2, MAPKAP-K2, MAPKAP-K3, MEK1, MKK4, MKK6, MKK7β, Mnk2, MSK1, PAK3, PDK1, PRAK, ROCK1, Rsk2, SAPK2a, SAPK2b, SAPK3, SAPK4, SRPK1, SRPK2, Syk, TAK1, TBK1, PI3-Kβ, PI3-Kγ, PI3-Kδ.

In a further series the target is T2, ERK2 (Homo sapiens, UniProt P28482).
T2 construct: purchased Upstate, Millipore Bioscience Division (KinaseProfiler service)
T2 sequence (P28482 whole entry): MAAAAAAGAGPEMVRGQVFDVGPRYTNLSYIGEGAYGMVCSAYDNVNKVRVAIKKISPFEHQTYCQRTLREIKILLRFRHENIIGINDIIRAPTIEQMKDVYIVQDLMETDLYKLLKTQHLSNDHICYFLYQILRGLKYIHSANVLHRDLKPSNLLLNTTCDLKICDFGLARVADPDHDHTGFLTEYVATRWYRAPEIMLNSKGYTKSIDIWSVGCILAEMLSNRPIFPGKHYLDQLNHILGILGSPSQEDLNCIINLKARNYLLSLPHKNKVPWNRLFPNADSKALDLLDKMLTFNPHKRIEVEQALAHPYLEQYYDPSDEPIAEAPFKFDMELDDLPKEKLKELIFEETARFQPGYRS
Description: Kinase panel screen (KinaseProfiler), ERK2. It is filed as biochemical. The following applies: 1 μM test compound, 10 μM ATP; read-out: Percent inhibition ERK2 at 1 μM. The protocol: as §1

The next series has as its target T3, Mnk2 (Homo sapiens, UniProt Q9HBH9).
T3 construct: purchased Upstate, Millipore Bioscience Division (KinaseProfiler service)
Format: biochemical. The protocol: as §1

In the next series the target is T4, ROCK1 (Homo sapiens, UniProt Q13464).
T4 construct: purchased Upstate/Chemicon 14-601
T4 sequence (Q13464 17-535 limits assumed): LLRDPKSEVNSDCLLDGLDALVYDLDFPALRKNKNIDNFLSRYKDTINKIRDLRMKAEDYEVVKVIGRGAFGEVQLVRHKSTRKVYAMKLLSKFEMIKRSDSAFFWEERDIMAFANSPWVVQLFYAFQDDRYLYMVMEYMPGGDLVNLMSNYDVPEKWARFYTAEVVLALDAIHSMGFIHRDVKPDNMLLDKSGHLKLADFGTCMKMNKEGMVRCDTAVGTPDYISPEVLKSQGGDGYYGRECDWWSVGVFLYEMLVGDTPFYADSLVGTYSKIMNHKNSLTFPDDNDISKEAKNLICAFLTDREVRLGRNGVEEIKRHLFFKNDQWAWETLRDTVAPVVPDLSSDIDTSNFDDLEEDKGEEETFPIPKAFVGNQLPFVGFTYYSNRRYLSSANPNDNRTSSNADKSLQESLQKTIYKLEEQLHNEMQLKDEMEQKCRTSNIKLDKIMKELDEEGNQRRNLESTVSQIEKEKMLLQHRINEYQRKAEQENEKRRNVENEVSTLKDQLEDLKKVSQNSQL
Description: Rho kinase inhibition assay (IMAP fluorescence polarization), ROCK1. It is filed as biochemical. (In general: In fluorescence polarisation assays a small probe gives low polarisation when free and higher when bound to something large.)

Series [7] relates to A-10 rat thoracic aorta cells. Description: PDGF-stimulated smooth muscle cell proliferation assay (BrdU incorporation). It is filed as cell-based. A general note: Uptake of a labelled nucleoside into DNA is a usual measure of proliferation.
Description: Effects on cell proliferation were measured using a bromodeoxyuridine (BrdU) incorporation assay. […] Serum free media containing 0.1% BSA was added to the cells. 24 hours later the media was removed and replaced with warmed serum free media. […] Proliferation was then monitored using the BrdU Cell Proiferation Assay, HTS (Calbiochem cat. # HTS01). BrdU was allowed to incorporate into cells for 24 hours prior to the addition of fixative/denaturing solution and the fluorometric detection of incorporated BrdU using a BrdU antibody as per manufacturer's directions. Data are reported as a percent of the PDGF-stimulated BrdU incorporation.
For a further series, the target named is T5, Akt3 human enzyme (Homo sapiens, UniProt Q9Y243).
T5 construct: purchased Upstate Chemicon 14-502
T5 sequence (Q9Y243 whole entry): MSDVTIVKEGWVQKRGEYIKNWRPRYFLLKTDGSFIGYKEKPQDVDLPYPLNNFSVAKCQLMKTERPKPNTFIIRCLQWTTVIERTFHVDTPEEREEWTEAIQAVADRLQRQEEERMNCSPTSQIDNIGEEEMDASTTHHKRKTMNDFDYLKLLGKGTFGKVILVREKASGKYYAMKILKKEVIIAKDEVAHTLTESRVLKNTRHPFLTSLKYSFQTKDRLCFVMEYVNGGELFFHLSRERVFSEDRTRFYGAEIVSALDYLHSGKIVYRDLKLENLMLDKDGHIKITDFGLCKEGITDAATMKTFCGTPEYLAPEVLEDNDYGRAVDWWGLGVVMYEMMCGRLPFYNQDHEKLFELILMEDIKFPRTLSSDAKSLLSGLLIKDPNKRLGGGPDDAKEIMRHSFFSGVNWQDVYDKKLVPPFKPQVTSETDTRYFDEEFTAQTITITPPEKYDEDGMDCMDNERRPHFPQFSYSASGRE
Description: Akt3 inhibition assay (IMAP FP). Format: biochemical.

The target in another series is p70S6K human enzyme (Homo sapiens, UniProt P23443, T412E). Description: p70S6K inhibition assay (IMAP FP). Format: biochemical.
p70S6K human enzyme, sequence (P23443 whole entry T412E): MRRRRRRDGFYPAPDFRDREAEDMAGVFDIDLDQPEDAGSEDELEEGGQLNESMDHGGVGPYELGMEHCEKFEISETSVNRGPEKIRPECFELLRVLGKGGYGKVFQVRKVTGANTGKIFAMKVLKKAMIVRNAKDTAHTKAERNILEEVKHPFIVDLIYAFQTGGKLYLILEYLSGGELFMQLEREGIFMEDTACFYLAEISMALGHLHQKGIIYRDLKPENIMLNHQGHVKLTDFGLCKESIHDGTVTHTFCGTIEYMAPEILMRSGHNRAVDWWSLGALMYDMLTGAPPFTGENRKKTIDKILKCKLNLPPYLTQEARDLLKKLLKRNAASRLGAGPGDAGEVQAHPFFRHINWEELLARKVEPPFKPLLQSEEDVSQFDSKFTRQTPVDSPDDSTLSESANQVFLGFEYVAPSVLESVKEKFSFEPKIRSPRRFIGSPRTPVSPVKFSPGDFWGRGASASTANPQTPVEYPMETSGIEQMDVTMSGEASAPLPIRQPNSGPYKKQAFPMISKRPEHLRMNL
Series [8] can be described thus: Compound plasma concentrations in unsensitized mice at 15 min post administration. Format: in vivo. The settings on record: mouse, 15 μmol/kg; mean plasma concentration in mice at 15 minutes post oral administration; read-out: Mouse Oral PK.
The subject of series [9] is VEGF-induced angiogenesis. The settings on record: 100 μM; cited from earlier work.
In series [10] the test system is monocytes, endothelial cells, and lymphocytes. The following applies: cited from earlier work.
The subject of the next series is murine eosinophils. Description: Murine eosinophil chemotaxis (eotaxin-induced). Format: cell-based, mouse. The settings on record: 10 nM eotaxin challenge. Here is the method: Mouse Eosinophil Isolation: Bronchoalveolar lavage was collected from ovalbumin sensitized and challenged mice in a volume of 2.5 mL lavage buffer. The lavage buffer was 0.9% saline with 10% fetal bovine serum. The pooled lavages were maintained on ice until use. The murine eosinophils were isolated using MACS cell separation (Miltenyi Biotech) by depletion of B cells and T cells by positive selection following incubation with antibody conjugated magnetic beads specific for CD45-R (B220) and CD90 (Thy 1.2), which bind B cells and T cells, respectively.
(§2) In Vitro Chemotaxis: Eosinophil chemotaxis was assessed using a modified Boyden Chamber (Neuroprobe, 96-well) with a 5 μm pore membrane. The ability of the tested compounds to block chemotaxis induced by a 10 nM eotaxin challenge (mouse) or 1 nM eotaxin challenge (human) during one hour incubation at 37° C. with 5% CO2 was assessed.

For another series, the system named is human eosinophils. Description: Human eosinophil chemotaxis (eotaxin-induced). Format: cell-based. The following applies: 1 nM eotaxin challenge.
Description: Human Eosinophil Isolation: Peripheral blood from healthy human volunteers was collected and the PMNs separated via Ficoll-paque density centrifugation followed by hypotonic lysis of the red blood cells. Subsequently, the human eosinophils were isolated from the cell suspension via StemCell Technologies Human Eosinophil Enrichment kit (Cat. No 19256) according to the manufacturer's recommendations. Briefly, unwanted cells were specifically labeled with dextran-coated magnetic nanoparticles using bispecific Tetrameric Antibody Complexes (TAC) directed against cell surface antigens on human blood cells: CD2, CD3, CD14, CD16, CD19, CD20CD36, CD56, CD123, glycophorin A and dextran. The unwanted cells are then separated from the unlabelled eosinophils using the EasySep® magnetic isolation procedure.
as §2

For another series, the system named is human neutrophils. Description: Human neutrophil chemotaxis (fMLP-induced, Boyden chamber). Format: cell-based. The following applies: average.
The mark [11] stands for this setting: 10 μM of test compound, 1 ng/mL LPS, 4 hours, read-out: IL-1β % (Percent inhibition values for inhibition of cytokine secretion).
Where [12] appears, read: read-out: IL-6 % (Percent inhibition values for inhibition of cytokine secretion), 10 μM of test compound, 1 ng/mL LPS, 4 hours.
[13] abbreviates: 15 μmol/kg/oral on days 27 to 31.

The structures appear in SMILES notation. Where two headings read alike, the source gives them in different places.

T3 sequence (Q9HBH9 whole entry): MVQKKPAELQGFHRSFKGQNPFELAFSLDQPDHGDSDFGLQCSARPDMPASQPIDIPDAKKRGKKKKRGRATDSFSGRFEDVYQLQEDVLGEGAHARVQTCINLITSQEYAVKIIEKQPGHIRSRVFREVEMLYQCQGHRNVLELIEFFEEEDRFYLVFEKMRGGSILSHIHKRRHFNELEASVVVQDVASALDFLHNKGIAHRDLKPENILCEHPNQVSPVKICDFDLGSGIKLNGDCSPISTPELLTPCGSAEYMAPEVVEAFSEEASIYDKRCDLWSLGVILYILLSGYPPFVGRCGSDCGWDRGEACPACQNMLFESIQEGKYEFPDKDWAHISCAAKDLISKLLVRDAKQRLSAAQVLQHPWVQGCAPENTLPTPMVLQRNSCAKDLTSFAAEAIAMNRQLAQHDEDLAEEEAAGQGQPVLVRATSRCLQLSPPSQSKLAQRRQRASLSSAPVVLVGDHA
Description for Akt3 human enzyme: (§3) Inhibition of Akt3 and p70S6K activity was determined using the IMAP™ FP Progressive Binding Kit (Molecular Devices product number R8127). […] Following the pre-incubation, 30 μM ATP was added to initiate the reaction. After 60 minutes at RT, Molecular Devices IMAP™ binding solution was added to bind phosphorylated substrate. After 30 minutes of incubation in the presence of the IMAP™ beads the fluorescence polarization was read and the ratio was reported as mP. IC50 results were calculated using the Prism software from Graphpad. The Ki values were determined according to the following formula: Ki=IC50/(1+([ATP Challenge]/EC50 ATP)).
Description for ROCK1: Following the pre-incubation, 10 μM ATP was added to initiate the reaction. After 60 minutes at room temperature, Molecular Devices IMAP™ binding solution was added to bind phosphorylated substrate. After 30 minutes of incubation in the presence of the IMAP™ beads, the fluorescence polarization was read and the ratio was reported as mP. IC50 values for compounds and EC50 values for ATP were calculated using the Prism software from Graphpad.
Description for human neutrophils: Peripheral blood from healthy human volunteers was collected and the neutrophils were isolated by Ficoll-paque density centrifugation followed by dextran sedimentation and hypotonic lysis of the red blood cells. Neutrophil chemotaxis was assessed using a modified Boyden Chamber (Neuroprobe, 96-well) with a 3 μm pore polycarbonate membrane. The ability of the tested compounds to block chemotaxis induced by a 1 μM fMLP challenge during a one hour incubation at 37° C. with 5% CO2 was assessed in a dose response manner.
Description for p70S6K human enzyme: as §3

Regarding `CS(=O)(=O)Nc1cccc(CN2CCC[C@H](Nc3ccc4[nH]ncc4c3)C2)c1` [Compound 1.091, (S)-N-(3-((3-(1H-indazol-5-ylamino)piperidin-1-yl)methyl)phenyl)methanesulfonamide], the “eosinophil influx (BALF)” value in series [1] (dosed i.t. to day 30, anti-inflammatory dosing paradigm) is given as “reduction of eosinophils”. Further, in series [2] (days 27 to 30), the airway hyperreactivity result was “prevention of airway hyperreactivity”. The activity at 10 µM in [3] (setting [11]) was determined as 166%. Also, in series [4], the “IL-1β levels in BALF” value was “reduction in IL-1β”. For the same compound, the “LPS-induced pulmonary neutrophilia influx (BALF)” value in series [4] (intratracheal dosing one hour prior to LPS challenge) is “significant reduction”. In series [5], the Cmax result is “BLQ”, the Tmax result was “BLQ”, the Vz_F entry is reported as “BLQ” and the t½ result was “BLQ”. The “AUC (0-last)” value in [5] (time zero through last observable value) is on record as “BLQ”. Further, the concentration at 2.5 h in series [6] came to 123 nM.

As to `OCCn1ccc2cc(CN3CC[C@@H](Nc4cccc5cnccc45)C3)ccc21` [Compound 2.066, (R)-2-(5-((3-(isoquinolin-5-ylamino)pyrrolidin-1-yl)methyl)-1H-indol-1-yl)ethanol], in series [2] (days 27 to 31), the airway hyperreactivity entry was “prevention of airway hyperreactivity”. The Percent inhibition at 1 µM at ERK1 is approximately 50%. In addition, the activity at 1 µM on ERK2 is approximately 50%. The “Percent inhibition Mnk2 at 1 μM” value at Mnk2 is 99.

For `Cc1ccc(CN2CC[C@@H](Nc3cccc4cnccc34)C2)cc1OCCO` [Compound 2.064, (R)-2-(5-((3-(isoquinolin-5-ylamino)pyrrolidin-1-yl)methyl)-2-methylphenoxy)ethanol], the inhibitory constant (Ki) (commonly a dissociation constant, usually derived from enzyme kinetics or from competition with a known ligand) came out at 4.1 nM at ROCK1; 4.1 nM at ROCK1 (read-out: ROCK1 Ki, average); 382 nM at Akt3 human enzyme (average, read-out: Akt3 Ki); 382 nM on Akt3 human enzyme (read-out: Akt3 Ki, Avg); 178 nM on p70S6K human enzyme (average, read-out: p70S6K Ki); 178 nM at p70S6K human enzyme (read-out: p70S6K Ki, Avg). Further, the activity at 10 µM in [3] (setting [11]) is 14.3%; in series [3] (10 μM of test compound, 1 ng/mL LPS, 4 hours, read-out: TNF-α % (Percent inhibition values for inhibition of cytokine secretion)) it was 66.2%; in [3] (setting [12]), 45.7%. Also, the “Percent of PDGF Induced Proliferation at 1 μM Avg” value in [7] (1 μM, 10 ng/mL PDGF) was 53.1%. The “Percent of PDGF Induced Proliferation at 10 μM Avg” value in series [7] (10 μM, 10 ng/mL PDGF) turned out to be 56.2%. Further, the “Proliferation at 1 μM” value in series [7] (average percent of PDGF stimulated proliferation at 1 μM test compound) worked out at 53.1%. Also, the “Proliferation at 10 μM” value in [7] (average percent of PDGF stimulated proliferation at 10 μM test compound) worked out at 56.2%. Besides, the concentration at 15 min in [8] is 202 nM.

Take `O=S(=O)(c1cccc2cnccc12)N1CCCNCC1` [Fasudil]: in series [9], the new vessel formation result was “new vessel formation was prevented”. Also, the “expression of IL-1β, TNFα, and various other cytokines” value in series [10] is “suppress expression”.

For the compound `CS(=O)(=O)Nc1cccc(CN2CC[C@@H](Nc3cccc4cnccc34)C2)c1` [Compound 2.038, (R)-N-(3-((3-(isoquinolin-5-ylamino)pyrrolidin-1-yl)methyl)phenyl)methanesulfonamide], the “inhibition of eotaxin-induced murine eosinophil chemotaxis” value in the series with murine eosinophils was “inhibited”. For the same compound, in the series on human eosinophils, the “inhibition of eotaxin-induced human eosinophil chemotaxis” value is recorded as “inhibited”. Further, in series [1] (setting [13]), the “concentration of Eotaxin in BALF” value is given as “reduced levels”, the “concentration of IL-5 in BALF” value is recorded as “reduced levels” and the “concentration of IL-13 in BALF” value is “reduced levels”. In addition, in [1] (dosed orally to day 31, anti-inflammatory dosing paradigm), the “airway eosinophil infiltration (eosinophils per ml of BALF)” value is given as “reduced”. For the same compound, the “airway hyperreactivity to metacholine on Day 32” value in [2] (oral 15 μMol/kg once a day, days 27 to 31) was “prevention of airway hyperreactivity”.

As for `NC(=O)Cn1ccc2cc(CN3CC[C@@H](Nc4cccc5cnccc45)C3)ccc21` [Compound 2.059, (R)-2-(5-((3-(isoquinolin-5-ylamino)pyrrolidin-1-yl)methyl)-1H-indol-1-yl)acetamide], the airway hyperreactivity result in series [2] (days 27 to 31) was “prevention of airway hyperreactivity”. Further, the activity at 10 µM in series [3] (setting [12]) is 0%. For the same compound, the “IL-1β levels in BALF” value in series [4] is recorded as “reduction in IL-1β”. Moreover, the Percent inhibition at 1 µM on ERK1 is approximately 50%. At ERK2, the activity at 1 µM is approximately 50%. On Mnk2, the “Percent inhibition Mnk2 at 1 μM” value turned out to be 49.

Consider `CS(=O)(=O)Nc1cccc(CN2CCC[C@@H](Nc3ccc4[nH]ncc4c3)C2)c1` [Compound 1.093, (R)-N-(3-((3-(1H-indazol-5-ylamino)piperidin-1-yl)methyl)phenyl)methanesulfonamide], for which it took 363000 nM to reach half-maximal inhibition with human neutrophils (IC50).
